Values after ≈ are worked out from the molar mass of the structure shown. Like-named read-outs stand apart in the source and are kept apart here.
How the values were obtained:
Kinetic solubility assay = format: physicochemical
Description: MK256 was supplied as DMSO stock at 10 mM. 190 μL of buffer solution (PBS, pH 7.4) was added to all wells on a 96-well Millipore Solubility filter plate. 10 μL of MK256 or control compound testosterone was transferred in triplicate to the buffer wells to a final concentration of 500 μM. The filter plate was shaken for 1.5 hours at room temperature. Samples were filtered via a vacuum system into a fresh 96-well plate. Compounds were diluted to 500 μM (highest concentration) in DMSO and further diluted 1:10 for calibration curve (three-point). HPLC/UV analysis was performed on all samples (220 nm, 254 nm, and 280 nm).

[1] = Hepatocyte stability assay; format: in vitro ADME, Dog
Description: Human LiverPoolTM 20-donor, dog and mouse cryopreserved hepatocytes were obtained from BioreclamationIVT. Cryopreserved hepatocytes were removed from the liquid nitrogen tank and thawed in a 37°C water bath. As soon as the cells pulled away from the vial wall, they were decanted into 48 ml of warm HT medium. Cells were centrifuged for four minutes at 420 rpm (50 g). After the supernatant was removed, the pellet was re-suspended in warm DMEM medium. Cell density was counted by a hemacytometer. The assay was carried out in 96-well microtiter plates. MK256 was incubated for 0, 60, 120, and 180 minutes at 37°C with hepatocytes. Reaction mixtures (50 μL) contained a final concentration of 1 μM MK256, 0.5 million cells/mL hepatocytes in the DMEM medium. At each time point (for example, 0, 1, 2, and 3 hrs), 200 μL of quench solution (100% acetonitrile with 0.1% formic acid) with internal standard were transferred to each well. […] All samples were analyzed on LC/MS/MS using an AB Sciex API 4000 instrument, coupled to a Shimadzu LC-20AD LC Pump system. […] The extent of metabolism was calculated as the disappearance of the test compound, compared to the 0-min control reaction incubations. Initial rates were calculated for the compound concentration and used to determine t1/2 values and subsequently, the intrinsic clearance, CLint = (0.693)(1/t1/2 (min))(mL incubation/million cells).

[2] = tested on: p-STAT1 (S727), p-STAT3(S727), p-STAT5(S726) in MOLM-14 xenograft tumors; test: Pharmacodynamics study in MOLM-14 xenograft model (western blot of tumors); format: in vivo, mice; conditions: 10, 50 and 100 mg/kg oral, 6 hrs; with higher doses
Description: For the in vivo western blot study, to assess gene expression in vivo, tumors were induced in female NOD SCID mice by s.c. inoculation of 5 × 10^6 AML cells suspended in matrigel. Mice bearing tumors of at least 100 mm^3 were treated with MK256. Mice were sacrificed after 6 hrs and tumors were harvested. The tumors were homogenized and lysed in T-per Mammalian Protein Extraction Reagent (78510, Thermo Fisher Scientific) containing protease and phosphatase inhibitors (88669, Thermo Fisher Scientific). Total protein concentration was measured using the Pierce BCA protein Assay Kit (23227, Thermo Fisher Scientific). Proteins were separated on SDS-PAGE and transferred to Nitrocellulose membrane. Immunoblotting was performed using specific antibodies. The following specific antibodies were used: Cell signaling technology: pSTAT1(S727) #8826, pSTAT1(Y701) #9167, STAT1 #14994, pSTAT3 (S727) #9134, pSTAT3(Y705) #9145, STAT3 #9139, pSTAT5(Y694) #4322, STAT5 #25656, b-ACTIN #3700, GAPDH #5174, BCL2 #4223, MCL-1 #94296, Cleaved PARP #9541, Cleaved Caspase3 #9661, IL6ST #12859, SmyD3 #3732, PD-L1 #13684. Invitrogen: IL6R PA5109855. Abcam: pSTAT5(S726) ab128896.

MOLM-14 xenograft model = test: MOLM-14 xenograft efficacy study, single agent; format: in vivo, NOD SCID mice; conditions: 50 mg/kg twice a day
Description: These favorable properties led us to evaluate the efficacy of MK256 in vivo using the MOLM-14 cell line to examine if the compound could inhibit tumor growth in the MOLM-14 xenograft model. Mice were given 100 ul of 50 mg/kg of MK256 or 100 ul of saline twice a day for 21 days following a 5-day on/ 2-day off schedule. Tumors from two groups of mice were all initially ~ 300 mm^3. Tumors of the mice in the control group continued to grow quickly during the 21-day period, with the average tumor volume reaching 1600 mm^3 on day 22, when we measured tumors for the last time. In the contrast, tumors of the mice in the treatment group shrank to 200 mm^3 on average by day 22 (Figure 9A). Average tumor weight was 0.16 g for the treatment group and 1.85 g for the control group (Figure 9B). […] Tumors collected on day 22 were then processed and analyzed with western blot.
Female NOD SCID mice were purchased from Charles River Laboratories (Wilmington, USA) or bred at the animal facilities of the University of California San Francisco. All animal experiments were carried out under protocols approved by the Institutional Animal Care and Use Committee of the University of California San Francisco. For MOLM-14 model, 200 ul of 1 × 10^6 cells combined with matrigel (v/v, 1:1) were injected subcutaneously in the right flank of NODSCID mice. Tumors were allowed to grow for two weeks to reach a tumor volume about 200 mm^3 before mice were randomly grouped. The animals were treated for three weeks on a 5 days on/2 days off schedule by oral gavage with MK256 (dissolved in saline) alone or in combination with Venetoclax (dissolved in 5% DMSO + 50% PEG 300 + 5% Tween 80 + ddH2O). In the single treatment study, MK256 was administered by mice twice a day at 50 mg/kg. In the combination study, MK256 (10 or 50 mg/kg) and was coadministered with Venetoclax (25 mg/kg) once a day. Tumor volume and body weight were monitored once every 3 days. Tumor volume was calculated as L × W^2/2, where L and W were the length and width of the tumor, respectively.

## Nc1nccc2c(Br)cc3cc(C(=O)O)ccc3c12 [MK256]
Kinetic solubility assay; PBS buffer, aqueous buffer, kinetic from dmso stock, pH 7.4, read-out: KSOL (μM) PBS (PH 7.4)
  solubility kinetic at 1.5 h: 566 µM (≈ 180 µg/mL)
Kinetic solubility assay; PBS, pH 7.4, read-out: KSOL (μM) PBS (PH 7.4)
  solubility kinetic at 1.5 h: 566 µM (≈ 180 µg/mL)
[1]; Dog hepatocytes
  Clint (μL·min^−1·mg protein^−1): 7 μL·min^−1·mg protein^−1
[1]; dog, cryopreserved dog hepatocytes, read-out: T½
  half-life at 1 µM: 3.57 h
[2]
  expression levels of p-STAT1 (S727), p-STAT3(S727), p-STAT5(S726) in tumors: further downregulated
MOLM-14 xenograft model
  expression level of p-STAT1(S727) and p-STAT5(S726) in tumors collected on day 22: down regulate
MOLM-14 xenograft model; 5-day on/2-day off, 21 days, start ~300 mm^3, control 1600 mm^3
  average tumor volume on day 22: 200 mm^3
MOLM-14 xenograft model; day 22, control 1.85 g
  average tumor weight: 0.16 g
MOLM-14 xenograft model; from 23.5 g at start, control 23.4 g to 25.7 g
  average body weight at end of study: 23.9 g

— publication PMC9629815, “MK256 is a novel CDK8 inhibitor with potent antitumor activity in AML through downregulation of the STAT pathway” (Oncotarget, 2022)
